Experimental data: patent US8802678B2, “Carbonylated (aza) cyclohexanes as dopamine D3 receptor ligands” (Bioprojet, priority 2006, dated 2014)

Row | melting point [°C] | Structure (SMILES)
1 | 243 | Cl.N#CCC(=O)N[C@H]1CC[C@H](CCN2CCN(c3ccccc3)CC2)CC1
2 | 260 | Cl.Cl.O=C(CN1CCC(CCN2CCN(c3cccc(C(F)(F)F)c3)CC2)CC1)c1ccccc1
3 | 153 | Cl.N#CCC(=O)N[C@H]1CC[C@@H](CCN2CCN(c3ccccc3F)CC2)CC1
4 | 150 | COCC(=O)N1CCC(CCN2CCN(c3cccc(C(F)(F)F)c3)CC2)CC1.Cl
5 | 191 | CC(C)Oc1cccc(N2CCN(CC[C@H]3CC[C@H](NC(=O)CC#N)CC3)CC2)c1.Cl
6 | 280 | CC(=O)CN1CCC(CCN2CCN(c3cc(C#N)cc(C(F)(F)F)c3)CC2)CC1.Cl.Cl
7 | 174 | N#CCC(=O)N[C@H]1CC[C@H](CCN2CC=C(c3cc(C(F)(F)F)cc(C(F)(F)F)c3)CC2)CC1
8 | 296 to 297 | CC(=O)CN1CCC(CCN2CC=C(c3cccc(Cl)c3Cl)CC2)CC1.Cl.Cl
9 | 215 | CC(=O)CN1CCC(CCN2CCN(c3cccc(C)c3C#N)CC2)CC1.Cl.Cl
10 | 283 | COc1ccc(C)c(N2CCN(CCC3CCN(CC(C)=O)CC3)CC2)c1.Cl.Cl
11 | 290 | CC(=O)CN1CCC(CCN2CCN(c3cccc(C)c3C)CC2)CC1.Cl.Cl
12 | 289 | CC(=O)CN1CCC(CCN2CCN(c3ccccc3C)CC2)CC1.Cl.Cl
13 | 320 | CC(=O)CN1CCC(CCN2CCN(c3cccc4c3CCCC4)CC2)CC1.Cl.Cl
14 | 270 | CC(=O)CN1CCC(CCN2CCN(c3cccc(C(F)(F)F)c3F)CC2)CC1.Cl.Cl
15 | 317 | CC(=O)CN1CCC(CCN2CCN(c3cccc(F)c3C)CC2)CC1.Cl.Cl
16 | 270 | CC(=O)CN1CCC(CCN2CCN(c3cccc4cccnc34)CC2)CC1.Cl.Cl
17 | 260 | CC(=O)CN1CCC(CCN2CCN(c3cc(C(F)(F)F)cc(C(F)(F)F)c3)CC2)CC1.Cl.Cl
18 | 265 | COc1cccc(N2CCN(CCC3CCN(CC(C)=O)CC3)CC2)c1.Cl.Cl
19 | 256 | CCCc1cccc(N2CCN(CCC3CCN(CC(C)=O)CC3)CC2)c1.Cl.Cl
20 | 275 | CC(=O)CN1CCC(CCN2CCN(c3cccc(OC(F)(F)F)c3)CC2)CC1.Cl.Cl
21 | 291 | CCc1ccccc1N1CCN(CCC2CCN(CC(C)=O)CC2)CC1.Cl.Cl
22 | 295 | CC(=O)CN1CCC(CCN2CCN(c3cccc4c3CCC4)CC2)CC1.Cl.Cl
23 | 130 | N#CCCCC(=O)N[C@H]1CC[C@H](CCN2CC=C(c3cccc(C(F)(F)F)c3F)CC2)CC1

Row | melting point [°C] | Structure (SMILES)
24 | 220 | N#CCC(=O)N[C@H]1CC[C@H](CCN2CC=C(c3ccc(Cl)cc3)CC2)CC1
25 | 182 | Cc1cc(C)cc(C2=CCN(CC[C@H]3CC[C@H](NC(=O)CC#N)CC3)CC2)c1
26 | 166 | Cc1cc(C)cc(C2=CCN(CC[C@H]3CC[C@H](NC(=O)CCCC#N)CC3)CC2)c1
27 | 147 | N#CCC(=O)N[C@H]1CC[C@@H](CCN2CC=C(c3ccc(F)cc3)CC2)CC1
28 | 260 | CC(=O)CN1CCC(CCN2CCN(c3ccccc3C(C)C)CC2)CC1.Cl.Cl
29 | 171 | N#CCCCC(=O)N[C@H]1CC[C@H](CCN2CC=C(c3ccccc3)CC2)CC1
30 | 325 | CC(=O)CN1CCC(CCN2CCN(c3ccc(C)c(C(F)(F)F)c3)CC2)CC1.Cl.Cl
31 | 260 | CC(=O)CN1CCC(CCN2CCN(c3ccc(F)cc3F)CC2)CC1.Cl.Cl
32 | 180 | N#CCCCC(=O)N[C@H]1CC[C@H](CCN2CC=C(c3ccc(F)cc3)CC2)CC1
33 | 202 | O=C(N[C@H]1CC[C@H](CCN2CC=C(c3ccccc3)CC2)CC1)C1=CCCC1
34 | 230 | CC(=O)CN1CCC(CCN2CCN(c3ccc(Cl)c(Cl)c3F)CC2)CC1.Cl.Cl
35 | 264 | CC(=O)CN1CCC(CCN2CCN(c3cccc4c3OCO4)CC2)CC1.Cl.Cl
36 | 101 | CC(=O)CN1CCC(CCN2CC=C(c3ccc(Cl)cc3)CC2)CC1
37 | 295 | CC(=O)CN1CCC(CCN2CCN(c3ccc(C#N)cc3)CC2)CC1.Cl.Cl
38 | 275 | CC(=O)CN1CCC(CCN2CCN(c3cc(C)ccc3F)CC2)CC1.Cl.Cl
39 | 160 | CC(=O)CC1CCC(CCN2CCN(c3cccc(C(F)(F)F)c3)CC2)CC1.Cl (stereo not shown)
40 | 310 | CC(=O)CN1CCC(CCN2CCN(c3cc(C(C)(C)C)nc(C(C)(C)C)n3)CC2)CC1.Cl.Cl
41 | 250 | CC(=O)CN1CCC(CCN2CCN(c3cccc(C(=O)C(C)C)c3)CC2)CC1.Cl.Cl
42 | 210 | Cl.N#CCC(=O)N1CCC(CCN2CCN(c3cccc4c3CCC4)CC2)CC1
43 | 244 | CC(=O)C(=O)N1CCC(CCN2CCN(c3cccc(Cl)c3Cl)CC2)CC1.Cl
44 | 228 | Cl.N#CCC(=O)N1CCC(CCN2CCN(c3cccc(Cl)c3Cl)CC2)CC1
45 | 72 | CC(=O)CN1CCC(CCN2CC=C(c3ccc(F)cc3)CC2)CC1
46 | 137 | Cl.NC(=O)CCC(=O)N1CCC(CCN2CCN(c3cccc4c3CCC4)CC2)CC1

Row | melting point [°C] | Structure (SMILES)
47 | 249 | CC(=O)CN1CCC(CCN2CCc3cc(C#N)ccc3C2)CC1.Cl.Cl
48 | 268 | COc1ccc(OC)c(N2CCN(CCC3CCN(CC(C)=O)CC3)CC2)c1.Cl.Cl
49 | 260 | COc1ccc(C)cc1N1CCN(CCC2CCN(CC(C)=O)CC2)CC1.Cl.Cl
50 | 168 | N#CCC(=O)N[C@H]1CC[C@H](CCN2CC=C(c3cc(C(F)(F)F)ccc3F)CC2)CC1
51 | 240 | CCCOCC(=O)N[C@H]1CC[C@H](CCN2CCN(c3cc(C(F)(F)F)ccc3F)CC2)CC1.Cl
52 | 253 | CC(=O)CN1CCC(CCN2CCN(c3cccc(Cc4ccccc4)c3)CC2)CC1.Cl.Cl
53 | 249 | CC(=O)CN1CCC(CCN2CCN(c3ccc(F)c(F)c3)CC2)CC1.Cl.Cl
54 | 270 | CCOCC(=O)N1CCC(CCN2CCN(c3cccc4c3CCC4)CC2)CC1.Cl
55 | 94 | CC(=O)CN1CCC(CCN2CC=C(c3cccc(C#N)c3)CC2)CC1
56 | 178 | COCCCC(=O)N[C@H]1CC[C@H](CCN2CC=C(c3cccc(C#N)c3)CC2)CC1
57 | 270 | CC(=O)CN1CCC(CCN2CCN(c3cc(Cl)ccc3F)CC2)CC1.Cl.Cl
58 | 255 | COCc1cccc(N2CCN(CCC3CCN(CC(C)=O)CC3)CC2)c1.Cl.Cl
59 | 153 | N#CCCCC(=O)N[C@H]1CC[C@H](CCN2CC=C(c3cc(C(F)(F)F)ccc3F)CC2)CC1
60 | 258 | CC(=O)CN1CCC(CCN2CCN(c3ccc(F)c(C)c3)CC2)CC1.Cl.Cl
61 | 219 | Cl.O=C(CCC(F)(F)F)N1CCC(CCN2CCN(c3cccc4c3CCC4)CC2)CC1
62 | 158 | CCc1ccccc1C1=CCN(CC[C@H]2CC[C@H](NC(=O)CC#N)CC2)CC1
63 | 166 | Cc1ccccc1C1=CCN(CC[C@H]2CC[C@H](NC(=O)CC#N)CC2)CC1
64 | 292 | CC(=O)CN1CCC(CCN2CC=C(c3ccccc3C)CC2)CC1.Cl.Cl
65 | 285 | CC(=O)CN1CCC(CCN2CCN(c3ccccc3CC(C)C)CC2)CC1.Cl.Cl
66 | 280 | CSc1ccccc1N1CCN(CCC2CCN(CC(C)=O)CC2)CC1.Cl.Cl
67 | 284 | CC(=O)CN1CCC(CCN2CCN(c3cccc(Cl)c3C#N)CC2)CC1.Cl.Cl
